Test results published in patent US8106055B2, “Substituted amide compounds” (Gruenenthal GmbH, priority 2007, dated 2012).
Read-outs that look alike come from different tables or passages of the source.

What was measured:
[1] = molecular target: T1, human bradykinin 1 receptor (B1R) (Homo sapiens, UniProt P46663); assay: Functional investigation on the human bradykinin 1 receptor (B1R), Ca2+ FLIPR assay in CHO K1 hB1R cells; format: cell-based
T1 construct: expressed in transfected cells; host or cells: CHO K1 cells
T1 sequence (P46663 1-353): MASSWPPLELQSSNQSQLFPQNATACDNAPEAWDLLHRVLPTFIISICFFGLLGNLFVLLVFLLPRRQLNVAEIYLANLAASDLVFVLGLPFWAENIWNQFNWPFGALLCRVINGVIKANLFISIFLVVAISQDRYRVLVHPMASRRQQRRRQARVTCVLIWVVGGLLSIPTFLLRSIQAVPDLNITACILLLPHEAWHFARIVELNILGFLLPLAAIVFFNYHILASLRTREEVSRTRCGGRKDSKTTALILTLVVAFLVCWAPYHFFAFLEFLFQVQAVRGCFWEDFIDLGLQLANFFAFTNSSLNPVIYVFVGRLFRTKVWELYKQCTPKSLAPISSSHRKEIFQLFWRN
Text: (§1) Functional Investigation on the Human Bradykinin 1 Receptor (B1R)
(§2) The agonistic or antagonistic action of substances can be determined on the bradykinin 1 receptor (B1R) of the human species and rats with the following assay. In accordance with this assay, the Ca^2+ inflow through the channel is quantified with the aid of a Ca^2=-sensitive dyestuff (type Fluo-4, Molecular Probes Europe BV, Leiden, Holland) in a fluorescent imaging plate reader (FLIPR, Molecular Devices, Sunnyvale, USA).
(§3) Chinese hamster ovary cells (CHO K1 cells) transfected stably with the human B1R gene (hB1R cells) or the B1R gene of the rat (rB1R cells) are used. For functional studies, these cells are plated out on black 96-well plates with a clear base (BD Biosciences, Heidelberg, Germany or Greiner, Frickenhausen, Germany) in a density of 20,000-35,000 cells/well. The cells are left overnight at 37° C. and 5% CO2 in culture medium (hB1R cells: Nutrient Mixture Ham's F12, Gibco Invitrogen GmbH, Karlsruhe, Germany or DMEM, Sigma-Aldrich, Taufkirchen, Germany; rB1R cells: D-MEM/F12, Gibco Invitrogen GmbH, Karlsruhe, Germany) with 10 vol. % of FBS (foetal bovine serum, Gibco Invitrogen GmbH, Karlsruhe, Germany or PAN Biotech GmbH, Aidenbach, Germany).
(§4) On the following day, the cells are loaded for 60 min at 37° C. with 2.13 μM Fluo-4 (Molecular Probes Europe BV, Leiden, The Netherlands) in HBSS buffer (Hank's buffered saline solution, Gibco Invitrogen GmbH, Karlsruhe, Germany) with 2.5 mM probenecid (Sigma-Aldrich, Taufkirchen, Germany) and 10 mM HEPES (Sigma-Aldrich, Taufkirchen, Germany). The plates are then washed 2× with HBSS buffer, and HBSS buffer which additionally contains 0.1% of BSA (bovine serum albumin; Sigma-Aldrich, Taufkirchen, Germany), 5.6 mM glucose and 0.05% of gelatine (Merck KGaA, Darmstadt, Germany) is added. After a further incubation of 20 minutes at room temperature, the plates are inserted into the FLIPR for the Ca^2+ measurement.
(§5) Alternatively, the plates are washed with buffer A (15 mM HEPES, 80 mM NaCl, 5 mM KCl, 1.2 mM CaCl2, 0.7 mM MgSO4, 2 g/l glucose, 2.5 mM probenecid), buffer A is added and the plates are loaded with 2.5 μM Fluo-4 and 0.025% of Pluronic F127 (Sigma-Aldrich, Taufkirchen, Germany). Thereafter, the cells are washed 2× with buffer A and incubated for 30 minutes with buffer A, which additionally contains 0.05% of BSA and 0.05% of gelatine, at room temperature and thereafter inserted into the FLIPR for the Ca^2+ measurement.
(§6) The Ca^2+-dependent fluorescence is measured before and after addition of substances (λex=488 nm, λem=540 nm). Quantification is by measurement of the highest fluorescence intensity (FC, fluorescence counts) over time.
(§7) The FLIPR protocol consists of 2 additions of substance. Test substances (10 μM) are first pipetted on to the cells and the Ca^2+ inflow is compared with the control (hB1R: Lys-Des-Arg^9-bradykinin >=50 nM; rB1R: Des-Arg^9-bradykinin 10 μM). This gives the information in % activation based on the Ca^2+ signal after addition of Lys-Des-Arg^9-bradykinin (>=50 nM) or Des-Arg^9-bradykinin (10 μM).
(§8) After incubation for 10-20 minutes, Lys-Des-Arg^9-bradykinin (hB1R) or Des-Arg^9-bradykinin (rB1R) is applied in the concentration of the EC80 and the inflow of Ca^2+ is likewise determined.
(§9) Antagonists lead to a suppression of the Ca^2+ inflow. % inhibition compared with the maximum achievable inhibition is calculated.
(§10) To determine the IC50 value, the substances are added in various concentrations. Duplicate or triplicate determinations (n=2 or n=3) are carried out, and these are repeated in at least one further independent experiment (N>=2).
(§11) Preferably, the compounds have a B1R antagonistic action on the human receptor and/or on the rat receptor. The following data are given by way of example in the following table: (In this, “B1R Ant. h” represents “B1R antagonism human” and “B1R Ant. r” represents “B1R antagonism rat”)

[2] = molecular target: T2, bradykinin 1 receptor (B1R) of the rat (Rattus norvegicus, UniProt P97583); assay: Functional investigation on the rat bradykinin 1 receptor (B1R), Ca2+ FLIPR assay in CHO K1 rB1R cells; format: cell-based
T2 construct: expressed in transfected cells; host or cells: CHO K1 cells
T2 sequence (P97583 1-337): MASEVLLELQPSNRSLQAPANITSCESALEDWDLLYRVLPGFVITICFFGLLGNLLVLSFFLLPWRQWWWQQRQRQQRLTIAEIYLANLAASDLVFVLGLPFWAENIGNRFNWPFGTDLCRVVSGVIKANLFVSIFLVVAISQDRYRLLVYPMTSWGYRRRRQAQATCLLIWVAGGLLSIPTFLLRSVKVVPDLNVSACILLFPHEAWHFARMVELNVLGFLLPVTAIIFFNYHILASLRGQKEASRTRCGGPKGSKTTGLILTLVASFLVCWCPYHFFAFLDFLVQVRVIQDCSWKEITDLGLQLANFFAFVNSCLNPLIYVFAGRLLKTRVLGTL
Text: as §1, §2, §3, §4, §5, §6, §7, §8, §9, §10, §11

[3] = CHO-K1, B1R antagonism human, test substance 10 μM, Ca2+ FLIPR, CHO K1 hB1R cells, read-out: B1R Ant. h [10 μM] % Inhibition
[4] = CHO-K1, B1R antagonism rat, test substance 10 μM, Ca2+ FLIPR, CHO K1 rB1R cells, read-out: B1R Ant. r [10 μM] % Inhibition

| Compound | inhibition at 10 µM [1, 3] | inhibition at 10 µM [2, 4] | other results |
| --- | --- | --- | --- |
| O=C(COCCN(C1CC1)S(=O)(=O)c1c(Cl)cc(Cl)cc1Cl)NC1CCC(C(c2ccccc2)N2CCOCC2)CC1 (stereo not drawn) [Example 605, 2-{2-[cyclopropyl-(2,4,6-trichlorobenzenesulfonyl)-amino]-ethoxy}-N-[4-(morpholin-4-yl-phenylmethyl)-cyclohexyl]-acetamide] | 40% | 38% |  |
| CN(CCOCC(=O)NC1CCC(C(c2ccccc2)N2CCOCC2)CC1)S(=O)(=O)c1c(Cl)cc(Cl)cc1Cl (stereo not drawn) [Example 607, 2-{2-[methyl-(2,4,6-trichlorobenzenesulfonyl)-amino]-ethoxy}-N-[4-(morpholin-4-ylphenylmethyl)-cyclohexyl]-acetamide] |  |  | B1R Ant. h [10 μM] % Inhibition ([1]; B1R antagonism human, test substance 10 μM, Ca2+ FLIPR, CHO K1 hB1R cells): 12%; B1R Ant. r [10 μM] % Inhibition ([2]; B1R antagonism rat, test substance 10 μM, Ca2+ FLIPR, CHO K1 rB1R cells): 3% |
| O=C(COC1CCN(S(=O)(=O)c2c(Cl)cc(Cl)cc2Cl)C1)NC1CCC(C(c2ccccc2)N2CCOCC2)CC1 (stereo not drawn) [Example 610, N-[4-(morpholin-4-ylphenylmethyl)-cyclohexyl]-2-[1-(2,4,6-trichlorobenzenesulfonyl)-pyrrolidin-3-yloxy]-acetamide] | 12% | 5% |  |
| CN(C)C(c1ccccc1)C1CCC(NC(=O)CNC(=O)c2nc(-c3cc(Cl)cc(Cl)c3)no2)CC1 (stereo not drawn) [Example 760, 3-(3,5-dichloro-phenyl)-[1,2,4]oxadiazole-5-carboxylic acid {[4-(dimethylamino-phenyl-methyl)-cyclohexylcarbamoyl]-methyl}-amide] | 66% | -4% |  |
| CN(C)C(c1ccccc1)C1CCC(NC(=O)CCNC(=O)c2nc(-c3cc(Cl)cc(Cl)c3)no2)CC1 (stereo not drawn) [Example 761, 3-(3,5-dichloro-phenyl)-[1,2,4]oxadiazole-5-carboxylic acid {2-[4-(dimethylamino-phenyl-methyl)-cyclohexylcarbamoyl]-ethyl}-amide] |  |  | inhibition at 10 µM ([1]; CHO-K1, read-out: B1R Ant. h [10 μM] % Inhibition): 34%; inhibition at 10 µM ([2]; CHO-K1, read-out: B1R Ant. r [10 μM] % Inhibition): 15% |
| Cc1cc(Cl)cc(Cl)c1-c1noc(C(=O)NCC(=O)NC2CCC(C(c3ccccc3)N(C)C)CC2)n1 (stereo not drawn) [Example 762, 3-(2,4-dichloro-6-methyl-phenyl)-[1,2,4]oxadiazole-5-carboxylic acid {[4-(dimethylamino-phenyl-methyl)-cyclohexylcarbamoyl]-methyl}-amide] | 73% | 25% |  |
| COc1ccccc1-c1noc(C(=O)NCC(=O)NC2CCC(C(c3ccccc3)N(C)C)CC2)n1 (stereo not drawn) [Example 763, 3-(2-methoxy-phenyl)-[1,2,4]oxadiazole-5-carboxylic acid {[4-(dimethylamino-phenyl-methyl)-cyclohexylcarbamoyl]-methyl}-amide] | -10% | 22% |  |
| CN(C)C(c1ccccc1)C1CCC(NC(=O)CNC(=O)c2nc(-c3cccs3)no2)CC1 (stereo not drawn) [Example 764, 3-thiophen-2-yl-[1,2,4]oxadiazole-5-carboxylic acid {[4-(dimethylamino-phenyl-methyl)-cyclohexylcarbamoyl]-methyl}-amide] | 17% | -31% |  |
| CN(C)C(c1ccccc1)C1CCC(NC(=O)CNC(=O)c2nc(-c3ccc(C(F)(F)F)cc3)no2)CC1 (stereo not drawn) [Example 765, 3-(4-trifluoromethyl-phenyl)-[1,2,4]oxadiazole-5-carboxylic acid {[4-(dimethylamino-phenyl-methyl)-cyclohexylcarbamoyl]-methyl}-amide] | 15% | 29% |  |
| CN(C)C(c1ccccc1)C1CCC(NC(=O)CNC(=O)c2nc(-c3ccc(C(C)(C)C)cc3)no2)CC1 (stereo not drawn) [Example 766, 3-(4-tert-butyl-phenyl)-[1,2,4]oxadiazole-5-carboxylic acid {[4-(dimethylamino-phenyl-methyl)-cyclohexylcarbamoyl]-methyl}-amide] | 6% | -9% |  |
| Cc1ccc(F)cc1-c1noc(C(=O)NCC(=O)NC2CCC(C(c3ccccc3)N(C)C)CC2)n1 (stereo not drawn) [Example 767, 3-(5-fluoro-2-methyl-phenyl)-[1,2,4]oxadiazole-5-carboxylic acid {[4-(dimethylamino-phenyl-methyl)-cyclohexylcarbamoyl]-methyl}-amide] | 43% | 17% |  |
| CN(C)C(c1ccccc1)C1CCC(NC(=O)CCNC(=O)c2nc(-c3ccc4c(c3)OCO4)no2)CC1 (stereo not drawn) [Example 768, 3-benzo[1,3]dioxol-5-yl-[1,2,4]oxadiazole-5-carboxylic acid {2-[4-(dimethylamino-phenyl-methyl)-cyclohexylcarbamoyl]-ethyl}-amide] | -3% | -2% |  |
| CN(C)C(c1ccccc1)C1CCC(NC(=O)CNC(=O)c2nc(CS(=O)(=O)c3ccccc3)no2)CC1 (stereo not drawn) [Example 769, 3-benzenesulfonylmethyl-[1,2,4]oxadiazole-5-carboxylic acid {[4-(dimethylamino-phenyl-methyl)-cyclohexylcarbamoyl]-methyl}-amide] | 15% | 39% |  |
| CN(C)C(c1ccccc1)C1CCC(NC(=O)CNC(=O)c2nc(-c3c(Cl)cccc3Cl)no2)CC1 (stereo not drawn) [Example 770, 3-(2,6-dichloro-phenyl)-[1,2,4]oxadiazole-5-carboxylic acid {[4-(dimethylamino-phenyl-methyl)-cyclohexylcarbamoyl]-methyl}-amide] | 53% | 16% |  |
| CN(C)C(c1ccccc1)C1CCC(NC(=O)CCNC(=O)c2nc(-c3ccccn3)no2)CC1 (stereo not drawn) [Example 771, 3-pyridin-2-yl-[1,2,4]oxadiazole-5-carboxylic acid {2-[4-(dimethylamino-phenyl-methyl)-cyclohexylcarbamoyl]-ethyl}-amide] | -16% | 8% |  |
